Experimental data: US8623906B2, “Carboxy isatin hydrazones and their esters as Shp2 inhibitors” (H. Lee Moffitt Cancer Center and Research Institute, Inc., priority 2009, dated 2014)
Read-outs that look alike come from different tables or passages of the source.

Experiments:
[1] = tested on: GST-Shp2 PTP domain protein; format: biochemical
Protocol: All reactions were monitored by thin layer chromatography (TLC) or ^1H NMR. Some products, which could not be purified by simply washing, were purified by Flashmaster chromatography. […] After the purity and structure were confirmed, samples were tested for IC50 by DiFMUP assay, seen in Table 1, appended.
Curve fitting and IC50 were obtained using the GraphPad Prism program (GraphPad Software).

[2] = tested on: Shp2^E76K in TF-1/Shp2^E76K cells; format: cell-based
Protocol: (§1) To measure Shp2 PTP activity in immune complexes, cells were lysed in ice-cold PTP lysis buffer [25 mM Hepes, pH 7.4, 150 mM NaCl, 1 mM DTT, 2 mM EDTA, 0.5% Triton X-100, 1:50 diluted protease inhibitor cocktail (Roche, Basel, Switzerland)]. Cell lysate supernatants (0.2 mg/each) were incubated with an anti-Shp2 antibody (Santa Cruz Biotechnology, Santa Cruz, Calif.) or with an anti-Flag antibody M2 (Sigma-Aldrich, St. Louis, Mo.) plus protein G-Sepharose for 2 h at 4° C. Immunoprecipitates were washed twice with the PTP lysis buffer and twice with the Reaction Buffer A (25 mM Hepes, pH 7.4, 50 mM NaCl, 1 mM DTT, 0.05% Triton X-100). Each Shp2 immune complex was resuspended in 100 μl of reaction buffer containing 50 μM DiFMUP and incubated at room temperature for 20 min. After a brief centrifugation, supernatants were transferred into 96-well plates and the DiFMU fluorescence signal was measured. The remaining immune complex pellets were used for immunoblotting analysis of Shp2 protein.

Shp2 in MDA-MB-468 cells = format: cell-based
Protocol: as §1

pISRE-Luc in HT-29 cells = test: ISRE luciferase reporter assay; format: cell-based; details: 50 U/ml IFN-γ alone, 6 h
Protocol: Luciferase reporter assays were conducted using HT-29 cells (5×10^5 cells/each in 12-well plate) were co-transfected with 1.6 μg pISRE-Luc (Clontech, Mountain View, Calif.) and 0.4 μg β-gal plasmids with LipofectAMINE 2000 reagent. Eighteen hours after transfection, cells were incubated in fresh medium, pretreated with indicated concentrations of SPI-112Me or mocked treated for 2 h, and then stimulated with 50 U/ml IFN-γ for 6 h or left unstimulated. Luciferase and β-galactosidase activities were determined as described (Ren, et al., Shp2E76K mutant confers cytokine-independent survival of TF-1 myeloid cells by up-regulating Bcl-XL. J Biol Chem 2007; 282:36463-73). The luciferase activity was then normalized to β-galactosidase-galactosidase activity as an internal control for transfection efficiency.

HT-29 cells = test: Viable cell number (CellTiterGlo), 4 days, Bliss synergism; details: IFN-γ 100 U/ml alone
Protocol: TF-1/Shp2^E76K and HT-29 Cells (1,000 cells/well in triplicate) were plated in 96-well plates in RPMI160/10% FBS plus test agent(s) in a total volume of 100 μl. […] After incubation for 4 days at 37° C./5% CO2, relative viable cell number was measured using the CelltiterGlo reagent (Promega) following the supplier's instruction.
Assume X is the fraction of inhibition caused by the first agent, Y is the fraction of inhibition caused by the second agent, and Z is the fraction of inhibition caused by the combination of both agents,
If Z=X+Y−XY, then the effect of two agents is additive.
If Z>X+Y−XY, then the effect of two agents is synergistic.
If Z<X+Y−XY, then the effect of two agents is antagonistic.

O=C(c1ccc(Cl)c(Cl)c1)N1CCc2cc(S(=O)(=O)N3CCN(c4cccc(Cl)c4)CC3)ccc21 [JF023]
IC50 [1]: 7.1 µM

O=C(O)/C=C/C(=O)N1CCc2cc(S(=O)(=O)N3CCN(c4cccc(Cl)c4)CC3)ccc21 [JHE-01-129A]
IC50 [1]: 2.8 µM

O=C(O)CCC(=O)N1CCCc2cc(S(=O)(=O)N3CCN(c4cccc(Cl)c4)CC3)ccc21 [JHE-02-023]
IC50 ([1]; Table 1, DiFMUP assay): 37.3 ± 5.3 µM

O=C(Nc1cccc(Cl)c1)N1CCc2cc(S(=O)(=O)N3CCN(c4cccc(Cl)c4)CC3)ccc21 [JHE-02-032A]
IC50 [1]: 8.3 µM

COc1cccc(NC(=O)N2CCc3cc(S(=O)(=O)N4CCN(c5cccc(Cl)c5)CC4)ccc32)c1 [JHE-02-032B]
IC50 [1]: 4.8 µM

COc1cccc(C(=O)N2CCc3cc(S(=O)(=O)N4CCN(c5cccc(Cl)c5)CC4)ccc32)c1 [JHE-02-035A]
IC50 [1]: 7.8 µM

O=C1Nc2ccc(S(=O)(=O)NCc3ccc(F)cc3)cc2/C1=N/Nc1cccc(C(=O)O)c1 [SPI-112, (Z)-3-(2-(5-(N-(4-fluorobenzyl)sulfamoyl)-2-oxoindolin-3-ylidene)hydrazinyl)benzoic acid]
IC50 [1]: 2.6 µM
effect on Shp2^E76K PTP activity in treated cells [2]: no decrease
effect on EGF-stimulated Shp2 PTP activity (Shp2 in MDA-MB-468 cells): did not affect

COC(=O)c1cccc(N/N=C2\C(=O)Nc3ccc(S(=O)(=O)NCc4ccc(F)cc4)cc32)c1 [SPI-112Me, (Z)-3-(2-(5-(N-(4-fluorobenzyl)sulfamoyl)-2-oxoindolin-3-ylidene) hydrazinyl)benzoic acid methyl ester]
IC50 [1]: > 100 µM
effect on Shp2^E76K PTP activity in treated cells ([2]; GM-CSF-free medium): lower Shp2^E76K PTP activity
reduction of EGF-stimulated Shp2 PTP activity (Shp2 in MDA-MB-468 cells; 20 μM pretreatment, EGF 50 ng/ml, 10 min): 77%

O=C(O)CCC(=O)N1CCc2cc(S(=O)(=O)N3CCN(c4ccc(F)cc4)CC3)ccc21 [XW2-011B]
IC50 [1]: 47.8 µM

Cc1cccc(N2CCN(S(=O)(=O)c3ccc4c(c3)CCN4C(=O)CCC(=O)O)CC2)c1 [XW2-057]
IC50 ([1]; Table 1, DiFMUP assay): 3.4 ± 2.3 µM

O=C(O)CCC(=O)N1CCc2cc(S(=O)(=O)N3CCN(c4ccc(C(=O)O)cc4)CC3)ccc21 [XW3-002]
IC50 ([1]; Table 1, DiFMUP assay): 6.1 ± 1.8 µM

B1: IFN-γ: interferon gamma used to stimulate HT-29 cells, alone or combined with SPI-112Me (protein, UniProt P01579 24-161, looked up)
Interferon gamma: QDPYVKEAENLKKYFNAGHSDVADNGTLFLGILKNWKEESDRKIMQSQIVSFYFKLFKNFKDDQSIQKSVETIKEDMNVKFFNSNKKKRDDFEKLTNYSVTDLNVQRKAIHELIQVMAELSPAAKTGKRKRSQMLFRG
activation of ISRE luciferase activity (pISRE-Luc in HT-29 cells): 26%
fraction of inhibition (HT-29 cells): 0.18
